Source: US20140213575A1, “6H-Thieno[3,2-f][1,2,4]triazolo[4,3-a][1,4]diazepines” (BAYER INTELLECTUAL PROPERTY GMBH, priority 2011, published 2014)
Entries after “also recorded” stand apart in the source; their conditions may differ.

What was measured:
MOLM-13 cells [1] = assay: Cellular proliferation assay (alamarBlue) MOLM-13; assay type: cell-based; conditions: Homo sapiens, 96 hours, read-out: Leukaemia MOLM-13 IC50
Protocol: (§1) In accordance with the invention, the ability of the substances to inhibit the proliferation of various cell lines was determined. Cell viability was determined by means of the alamarBlue® reagent (Invitrogen). […] After incubation overnight at 37° C., the fluorescence values were determined (CI values). […] Then the fluorescence values were determined (CO values).
(§2) The substances were investigated in the cell lines in Table 1, which for example represent the stated indications: […]

VCaP cells = assay: Cellular proliferation assay (alamarBlue) VCaP; assay type: cell-based; conditions: Homo sapiens, 168 hours, read-out: Prostate VCaP IC50
Protocol: as §1, §2

LNCaP cells = assay: Cellular proliferation assay (alamarBlue) LNCaP; assay type: cell-based; conditions: Homo sapiens, 168 hours, read-out: Prostate LNCaP IC50
Protocol: as §1, §2

MCF-7 cells = assay: Cellular proliferation assay (alamarBlue) MCF-7; assay type: cell-based; conditions: Homo sapiens, MCF7, 96 hours, read-out: Breast MCF-7 IC50
Protocol: as §1, §2

MDA-MB-231 cells = assay: Cellular proliferation assay (alamarBlue) MDA-MB-231; assay type: cell-based; conditions: Homo sapiens, 96 hours, read-out: Breast MDA-MB-231 IC50
Protocol: as §1, §2

HeLa-MaTu cells = assay: Cellular proliferation assay (alamarBlue) HeLa-MaTu; assay type: cell-based; conditions: 96 hours, read-out: Cervix HeLa-MaTu IC50
Protocol: as §1, §2

B16F10 cells = assay: Cellular proliferation assay (alamarBlue) B16F10; assay type: cell-based; conditions: Mus musculus, B16-F10, 96 hours, read-out: Melanoma B16F10 IC50
Protocol: as §1, §2

MOLP-8 cells = assay: Cellular proliferation assay (alamarBlue) MOLP-8; assay type: cell-based; conditions: Homo sapiens, 120 hours, read-out: Multiple myeloma MOLP-8 IC50
Protocol: as §1, §2

plasma proteins = assay: Plasma protein binding by equilibrium dialysis; assay type: in vitro ADME, mouse
Protocol: The binding of test substances to plasma proteins is determined by equilibrium dialysis by means of the Ht-dialysis apparatus (96-well) made of Teflon and a semipermeable membrane (regenerated cellulose, MWCO 12-14K). This separates 150 μl of each of a plasma side and a buffer side (50 mM phosphate buffer). The test substance is added in 2 concentrations (usually 3 and 0.3 μM) to the plasma side and binds to plasma proteins. The unbound fraction of the test substance passes through the membrane and is distributed on either side until equilibrium is established (after approx. 6-8 h at 37° C.). The substance concentration on the buffer side and the plasma side is determined by LC-MS analysis. For this, both sides are brought by dilution with buffer or plasma to the same matrix (10% plasma) and then precipitated with methanol. The free (unbound) fraction (fu) is calculated from the quotient of the buffer and plasma concentration. Stability tests and recovery tests are run concurrently as controls. In addition, the substance in buffer is dialysed against buffer, to check the nonspecific binding to apparatus and membrane and establishment of equilibrium. Because during incubation the osmotic pressure of the plasma proteins leads to dilution of the plasma (volume shift), this possible error is determined by weighing blank plasma samples and is included in the calculation of fu. Establishment of equilibrium and plasma stability should have a value not lower than 80% and the recovery should be at least 30%. A free fraction of <1% is regarded as high, between 1 and 10% as moderate and >10% as low plasma protein binding.

[2] = Plasma concentrations from in-vivo tests and PK parameters; conditions: mouse; for Plasma concentration: 60 mg/kg p.o.
Protocol: After thawing and shaking, the samples are centrifuged for 20 minutes at 4° C. and approx. 2000×g. An aliquot of the supernatant (approx. 25 μL) is measured by LCMS analysis. If high plasma or tissue levels are expected (>ULOQ, as a rule 5 μM) the precipitated samples are additionally diluted 1:100 with ACN/H2O (80/20, v/v)+internal standard and corresponding aliquots are measured by LCMS. For this, the test substance is added in 5-9 concentrations, corresponding to the determination range of the analytical method, to a control matrix (calibration samples), e.g. 0, 1, 10, 100, 1000, 5000 nM. For this, a portion of solid is weighed and is dissolved in DMSO (as a rule 1 mM stock solution). This stock solution is further diluted 1:10 with DMSO ([…]). Then 1:5 (v/v) ACN+internal standard (soln. A) is added to the calibration samples and processed further as with the plasma samples. The calibration series in solvent takes place similarly to the plasma calibration described. The test substance is in this case prepared in ACN/H2O (50/50, v/v) and then 1:5 (v/v) ACN+internal standard is added to the samples. This series serves for calibration of the diluted samples. The following PK parameters are calculated from these concentration-time profiles obtained: […]
AUC(0-tlast),norm multiplied by the free fraction (fu) of the species investigated.

[3] = In-vivo tolerability in the mouse; parameters: species or system female NMRI nude mice; conditions: for Drug-induced deaths (day): 3 animals per group
Protocol: The substances were formulated in NMP/PEG300 (1/9 V/V). They were administered orally, in an amount of 10 ml/kg, once or twice daily for a period of 5 to 7 days to female NMRI nude mice (6-8 weeks old; 3 animals per group). Body weight and mortality of the mice were monitored daily up to the end of the study. Toxicity was defined as follows: ≧10% substance-induced deaths or ≧20% weight loss.

MOLM-13 cells [4] = assay: MOLM-13 acute monocytic leukaemia tumour model; conditions: 70 mg/kg oral daily; significance P<0.05
Protocol: NMRI nude mice were inoculated subcutaneously in the right flank on day 0 with 2×10^6 MOLM-13 cells in 0.1 ml Matrigel. […] Practical example 1 and practical example 2 were dissolved in 40% PEG400, 5% ethanol, 25% Solutol. The substances were administered orally, daily for […] (day 3 to day 14). […] Practical examples 1 and 2 were applied at a daily dose of 200 (highest dose used), 120 or 70 mg/kg.

[5] = B16F10 melanoma tumour model; conditions: C57BL/6, mouse, in vivo, po
Protocol: (§3) C57BL/6 mice were inoculated on day 0 with 0.5×10^6 cells in 0.1 ml medium, subcutaneously, in the right flank. […] The substances were administered orally for 10 days (day 2 to day 11). […] Practical example 2 was applied at a dose of 160 or 120 mg/kg.

B16F10 melanoma = B16F10 melanoma tumour model; conditions: for weight loss: oral, day 2 to day 11
Protocol: as §3

[6] = oral 50 mg/kg, QD × 5, twice daily
[7] = oral 100 mg/kg, QD × 5, twice daily
[8] = oral 100 mg/kg, QD × 7, once daily

Compound `Cc1sc2c(c1C)C(c1ccc(Cl)cc1)=N[C@@H](CC(=O)OC(C)(C)C)c1nnc(C)n1-2` [Example V1, tert-Butyl[(S)-4-(4-chlorophenyl)-2,3,9-trimethyl-6H-thieno[3,2-f][1,2,4]triazolo[4,3-a][1,4]diazepin-6-yl]acetate, reference compound] has an IC50 (MOLM-13 cells [1]) of 59 nM, an IC50 (VCaP cells) of 37 nM and an IC50 (LNCaP cells) of 63 nM. The IC50 (MCF-7 cells) was 148 nM, the IC50 (MDA-MB-231 cells) was 86 nM and the IC50 (HeLa-MaTu cells) was 107 nM. For the same compound, the IC50 (B16F10 cells) was 67 nM, the IC50 (MOLP-8 cells) was 63 nM and the fu (plasma proteins; free fraction of the species investigated (mouse), as used in Table 6) was 1.5%. For the same compound, the fraction unbound (plasma proteins; mouse, plasma, free (unbound) fraction, equilibrium dialysis, read-out: Protein binding, given as % fu) was 0.015, the Plasma concentration ([2]; 1 h) was 2245.8 ng/mL and the Plasma concentration ([2]; 3 h) was 1220.2 ng/mL. For the same compound, the Plasma concentration ([2]; 5 h) was 587.2 ng/mL, the Plasma concentration ([2]; 7 h) was 321.5 ng/mL and the “AUC(0-tlast),norm,u” value ([2]; single oral dose 60 mg/kg, AUCnorm multiplied by fu) was 0.002 kg·h/L. The “AUC(0-tlast),norm” value ([2]; single oral dose 60 mg/kg, dose-normalized) was 0.12 kg·h/L, the tlast ([2]; single oral dose 60 mg/kg, last time point with measurable plasma concentration) was 7.0 h and the “maximum body weight loss” value ([3]; 50 mg/kg twice daily, on day 6) was 7%. For the same compound, the highest weight loss ([3]; daily dose of 100 mg/kg for 7 days, on the 9th day) was 10%, the MTD ([3]; female, NMRI nude, mouse, in vivo, oral, once daily, read-out: maximum tolerated treatment dose (MTD), single daily treatment) was 100 mg/kg and the “% maximum body weight change (day)” value [3, 6] was −7 (6) %. For the same compound, the “Remarks (tolerability)” value [3, 6] was “MTD”, the “Drug-induced deaths (day)” value [3, 6] was 0/3 and the “% maximum body weight change (day)” value [3, 7] was −19 (5) %. For the same compound, the “Remarks (tolerability)” value ([3]; oral 100 mg/kg, QD × 5, twice daily, 100 mg/kg) was “Not tolerated”, the “Drug-induced deaths (day)” value [3, 7] was 2 and the “% maximum body weight change (day)” value [3, 8] was −10 (9) %. The “Remarks (tolerability)” value ([3]; oral 100 mg/kg, QD × 7, once daily, 100 mg/kg) was “tolerated; also recorded: MTD (10% body-”, the “Drug-induced deaths (day)” value [3, 8] was 0/3 and the “activity on tumour growth” value (MOLM-13 cells [4]) was “biologically active”. It also gave an MTD at 10 days [5] of 55 mg/kg, a weight loss (B16F10 melanoma; 120 mg/kg dose) of 2% and a weight loss (B16F10 melanoma; 160 mg/kg dose) of 6%. For the same compound, the deaths (B16F10 melanoma; on day 12, in both dose groups) was “One mouse (out of 12) died”.
